Read-outs that look alike come from different tables or passages of the source.
Tests used:
γ-secretase complex = γ-secretase complex (Homo sapiens, UniProt P49768); assay: APP-C99 counter assay (GSI reporter assay); assay type: cell-based; parameters: AUC APP: scale not given here; settings: for AUC 9p APP-counter assay / AUC. 14p APP-counter assay: AUCs averaged when replicates available; for AUC APP: area under the 14-point dose-response curve, replicates averaged; for APP assay: overview in comparison to compound C, Supplemental Fig. 9; for remaining activity at 10 µM / activity at 10 µM / remaining activity at 25 µM / remaining activity at […]: 24 h; for remaining activity at 10 µM / remaining activity at 25 µM / remaining activity at […]: APP-C99 counter assay, read-out: 3p-DR in % of DMSO counter; for activity at 10 µM: sheet conf vs counter 10 µM, read-out: Counter screen (Hek APP-C99); for remaining activity at […]: 1,25µM
Summary of the method: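 Cells transfected with APP-C99 firefly luciferase reporter plus renilla normalization plasmid, seeded 24 h later onto compound plates and cultured 24 h. Dual luciferase read in triplicate per concentration; IC50 from variable-slope log(inhibitor) fit, with AUC also calculated from dose–response curves.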

JURKAT cells = assay: Growth inhibition, metabolic activity (CellTiter-Glo); assay type: cell-based; settings: Homo sapiens, six days, read-out: approximated IC50, growth (metabolic activity)
Source text: (§1) We next investigated whether compounds A-E affected growth and viability of cell lines from T-cell acute lymphoblastic leukaemia (T-ALL) and breast cancer, two tumour types in which elevated Notch signalling has been implicated in tumorigenesis. […] When testing analogues of compounds B and C, five of the seven B analogues and one of the two C analogues produced dose–response curves and IC50s, which however were higher compared to the original hits (Supplemental Fig. 5A; IC50s are presented in Supplemental Table 6).
(§2) Compounds were spotted on white 384-well tissue culture plates (Greiner, cat #781080) using an Echo 525 Acoustic liquid handler (Labcyte). Cells were grown to 80% confluence, detached if required, counted and 20 µl containing 2000–4000 cells per well was then seeded in each well and cultivated for three (4,000 cells seeded) and six days (2,000 cells seeded). […] Luciferase activity (reading out metabolic activity) was determined using the CellTiter-Glo 2.0 kit (CTG, Promega, cat #G9242) following the manufacturer’s instructions and luminescence was measured on a SpectraMaxi3 or Varioscan plate reader (Molecular Devices, Thermofisher).

RPMI-8402 cells = assay: as above; assay type: cell-based; settings: Homo sapiens; RPMI-8402, six days; read-out: approximated IC50, growth (metabolic activity)
Source text: as §1, §2

DHODH = target: T1, DHODH (Homo sapiens, UniProt Q02127); assay: DHODH enzyme activity assay (Resorufin fluorescence, Reaction Biology); assay type: biochemical
T1 construct: purchased Reaction Biology (contract assay)
T1 sequence (Q02127 whole entry): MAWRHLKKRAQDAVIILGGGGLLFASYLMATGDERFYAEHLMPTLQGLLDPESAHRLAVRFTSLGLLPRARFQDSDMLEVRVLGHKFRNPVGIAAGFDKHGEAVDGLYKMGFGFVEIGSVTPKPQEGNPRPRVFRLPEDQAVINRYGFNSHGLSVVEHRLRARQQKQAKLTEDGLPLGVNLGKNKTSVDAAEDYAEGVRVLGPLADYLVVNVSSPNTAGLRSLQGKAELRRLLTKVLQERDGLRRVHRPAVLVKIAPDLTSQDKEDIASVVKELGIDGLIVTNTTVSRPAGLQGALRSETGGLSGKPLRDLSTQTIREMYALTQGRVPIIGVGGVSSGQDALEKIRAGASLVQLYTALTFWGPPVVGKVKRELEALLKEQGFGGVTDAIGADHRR
Protocol: DHODH enzyme activity was determined via fluorescence-based quantification (Resorufin fluorescence as endpoint measurement) at Reaction Biology. Reference compound BAY2402234 was measured in singletons in two biological replicates and compounds were measured in technical replicates within the indicated dose-ranges. Values were normalized to DMSO control and dose–response curves were fitted using the log(inhibitor) versus response – Variable slope (model: Y = Bottom + (Top–Bottom)/(1 + 10^((LogIC50-X)*HillSlope)) equation.

HEK293T cells = assay: Growth inhibition, metabolic activity (CellTiter-Glo); assay type: cell-based; settings: six days, Supplemental Fig. 5E
Protocol: We also tested three analogues to compound B and one analogue to compound C. […] To assess the effects of compound A-E in a cell line with very low levels of Notch signalling we repeated the growth inhibition assay in HEK293T cells.
as §2

[1] = system: mNotch1ΔE fused to an HiBiT tag; assay: HiBit reporter assay; assay type: cell-based, mouse; parameters: key to protein stability: + indicates that the compound had an effect; -: − indicates that there was no significant effect in the respective assay; settings: for protein stability: summary Fig. 8E
Protocol: The Notch1ΔE construct used to generate the Notch reporter cell line (see above) was first cloned in frame into the pBiT3.2-C [TK/HiBiT/Blast] Vector (Promega) and then stably introduced into HEK293T wild type cells, using Lipofectamine transfection, as described. Analogous to the Notch reporter cell line, Blasticidin was used as a selection marker (0.1 mg/ml) and stable cell lines with robust luciferase signals were generated. […] A clone (#D2) with an empty HiBit vector stably integrated was used as control.
20 µl containing 4,000 cells were seeded on 384-well pre-spotted compound plates (Greiner, cat #781080). Cells were incubated for 24 h and viability was determined using CellTiter-Fluor (Promega, cat # G6080), following the manufacturer’s instructions. Next, cells were subjected to the HiBit assay according to the manufacturer’s instructions (Promega, cat # N3030). Prior to cell lysis, the tissue culture plates were allowed to cool down to room temperate. Fluorescence and luminescence signals were recorded using a SpectraMax i3 (Molecular devices) and signals were read at different time-points to determine optimal signal stability. Cells cultivated only with DMSO were used as a reference to determine effects of compounds. MG132, Bafilomycin A1 and the GSI RO4929097 served as additional controls. Celastrol was used to determine the assay window, and a minimum of two technical replicates were measured per assay.

[2] = 14p APP assay DR, Notch inhibitor controls, no bottom constraint named
[3] = 14p APP assay DR, bottom constrained to Emax of positive control LY-411575
[4] = Fig. 7B, read-out: IC50s DHODH assay: IC50
[5] = dose-range [M] 4.00E-05- 2.03E-09, 3 steps
[6] = dose-range [M] 4.00E-05- 2.03E-09, 3 steps, read-out: IC50

SMILES | Hill-Slope 9p APP counter assay averaged (γ-secretase complex; 9p dose response) | AUC 9p APP-counter assay (γ-secretase complex; 9p dose response) | AUC. 14p APP-counter assay (γ-secretase complex; 14p dose response) | AUC APP (γ-secretase complex) | APP assay (γ-secretase complex) | IC50 (JURKAT cells) | Hill-slope (γ-secretase complex; [3]) | remaining activity at 10 µM (γ-secretase complex) | remaining activity at 25 µM (γ-secretase complex) | remaining activity at […] (γ-secretase complex) | IC50s DHODH assay: Hill-Slope (DHODH; Fig. 7B) | Hill-slope (DHODH; [5]) | IC50 (DHODH; [6]) | IC50 (RPMI-8402 cells) | growth inhibitory effect (HEK293T cells) | protein stability [1] | other results
CC(C)(C)c1ccc(Oc2ccc(N)cn2)cc1 [CB-103, reference compound] | -2.0 | 3.16E+02 | 5.48E+02 | 548.4 | weak potency | 1700 nM |  |  |  |  |  |  |  | 900 nM |  |  | curve fit information (γ-secretase complex; [2]): IC50 indeterminate
C[C@H](NC(=O)Cc1cc(F)cc(F)c1)C(=O)N[C@H](C(=O)OC(C)(C)C)c1ccccc1 [DAPT, reference compound] | -2.8 | 3.64E+02 | 5.80E+02 | 580.4 | higher potency |  |  |  |  |  |  |  |  |  |  |  | IC50 (γ-secretase complex; 9p dose response, averaged, read-out: 9p APP counter assay averaged IC50s): 2500 nM; 9p APP counter assay averaged IC50s (log) (γ-secretase complex; 9p dose response, log10 of averaged IC50): -5.6; IC50 (γ-secretase complex; 9p dose response, read-out: approximated IC50s 9p APP counter assay): 2500 nM; IC50 (γ-secretase complex; 14-point, unit inferred, some fits outside of tested concentration range, read-out: approximated IC50s 14p APP-counter assay): 400 nM; curve fit information (γ-secretase complex; [2]): IC50 indeterminate; IC50 (γ-secretase complex; 14p APP assay DR, Notch inhibitor controls, no bottom constraint named, read-out: approximated IC50): 5200 nM; IC50 (γ-secretase complex; 14p dose response, single replicates, read-out: approximated IC50s 14p APP counter assay averaged): 5200 nM; IC50 (γ-secretase complex; 14p dose response, averaged over replicates, read-out: 14p APP counter assay averaged IC50s): 5200 nM
Cc1ccc2[nH]c3c(c2c1)CCOC31CCN(Cc2ccccc2-c2ccccc2)CC1 [compound B] |  |  |  | 643.8 |  | 300 nM |  | 113% | 149% | 100% | -5.7 | -5.7 | 2.2e-06 M | 500 nM |  | + | IC50 (DHODH; [4]): 2.2e-06 M
COc1cccc(CNc2ccc(N3CCCCC3)cc2)c1OCc1cccs1 [compound C] |  |  |  | 731.3 |  | 4300 nM | 0.0377 | 150% | 152% | 157% | -15.6 | -15.5 |  | 600 nM |  | + | activity at 10 µM (γ-secretase complex): 150%; DHODH enzyme activity (in words) (DHODH; Fig. 7B): appeared to reduce DHODH enzyme activity across the dose response range; IC50s DHODH assay: IC50 (DHODH; Fig. 7B): indeterminate; IC50 (DHODH; broader dose range, Fig. 7D, read-out: IC50, relative DHODH activity): 1.01e-08 M; LogIC50 (DHODH; [5]): Unstable; DHODH assay (DHODH; overview in comparison to compound C, Supplemental Fig. 9): active; HiBiT luciferase signal ([1]; 24 h, 14-point dose-response, Supplemental Fig. 8D,G): dose-dependent decrease of luciferase signal

Further lines, with some results ahead:

Hill-Slope 9p APP counter assay averaged (γ-secretase complex; 9p dose response) | AUC 9p APP-counter assay (γ-secretase complex; 9p dose response) | AUC. 14p APP-counter assay (γ-secretase complex; 14p dose response) | AUC APP (γ-secretase complex) | APP assay (γ-secretase complex) | IC50 (JURKAT cells) | Hill-slope (γ-secretase complex; [3]) | remaining activity at 10 µM (γ-secretase complex) | remaining activity at 25 µM (γ-secretase complex) | remaining activity at […] (γ-secretase complex) | IC50s DHODH assay: Hill-Slope (DHODH; Fig. 7B) | Hill-slope (DHODH; [5]) | IC50 (DHODH; [6]) | SMILES | IC50 (RPMI-8402 cells) | growth inhibitory effect (HEK293T cells) | protein stability [1] | other results
-1.5 | 2.88E+02 | 5.27E+02 | 527.4 | higher potency |  |  |  |  |  |  |  |  | CC(C)(C(=O)NCC(F)(F)C(F)(F)F)C(=O)N[C@@H]1C(=O)Nc2ccccc2-c2ccccc21 [RO4929097, reference compound] |  |  |  | 
 |  |  | 658.8 |  |  | -1.6 | 71.4% | 62.2% | 75.7% | -4.5 | -4.5 | 2.9e-05 M | CCc1c(C(=O)N(C)Cc2cnn(C(C)C)c2)[nH]c2ccccc12 [compound A] |  | did not exert a growth inhibitory effect | - | effect in the APP assay (γ-secretase complex; 14-point dose-response, Supplemental Fig. 4J): showed an inhibitory effect at high concentrations; Hill-slope (γ-secretase complex; 14p APP assay DR, bottom constrained to Emax of positive control CB-103): -1.6; activity at 10 µM (γ-secretase complex): 71.3%; IC50 (DHODH; [4]): 2.86e-05 M
 |  |  | 449.6 |  |  |  | 119% | 134% | 78% | -5.0 | -5.0 | 9.6e-06 M | NC(=O)c1c(NC(=O)NCc2cccnc2)sc2c1CCC2 [compound D] |  | did not exert a growth inhibitory effect | - | Hill-slope (γ-secretase complex; 14p APP assay DR, bottom constrained to Emax of positive control LY-411575, listed as CBK307578): 0.0595
 |  |  | 684.1 |  |  | -0.00246 | 80.7% | 81.7% | 83.7% | -4.4 | -4.4 | 3.7e-05 M | Cc1nn(-c2nc3ccccc3s2)c(O)c1C1OC(=O)c2ccccc21 (stereo not shown) [compound E] |  | did not exert a growth inhibitory effect | - | 

— article PMC13242511, “Disrupting Notch signalling by a small molecule inhibiting dihydroorotate dehydrogenase activity” (Scientific Reports, 2026)
